Common to all, as to type: cell-based
For assay [1], the target named is T1, 320 non-olfactory GPCRs (Homo sapiens, UniProt O15552).
T1 construct: expressed in transfected cells; host or cells: HTLA cells

Assay [2] concerns the target T2, 320 non-olfactory GPCRs (Homo sapiens, UniProt P18089).
T2 construct: expressed in transfected cells; host or cells: HTLA cells

Assay [3] deals with T3, 320 non-olfactory GPCRs (Homo sapiens, UniProt Q01726).
T3 construct: expressed in transfected cells; host or cells: HTLA cells
The settings on record: receptor MC1R; replicate values, Fig_4g.

In assay [4] the target is T4, 320 non-olfactory GPCRs (Homo sapiens, UniProt P32245).
T4 construct: expressed in transfected cells; host or cells: HTLA cells
The conditions noted are these: receptor MC4R; replicate values, Fig_4g.

Data on one compound can be found in publication PMC7044277 (Nature Communications, 2020).

Where “and” joins values, the source holds several entries; their conditions need not be identical. Equal entries are not always repeated.
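Throughout, for Fold of Basal: compound tested at 1 µM final concentration.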
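Throughout, for GPCRome agonism screen response: fold over basal response of each receptor without drug.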

T3 sequence (Q01726 whole entry): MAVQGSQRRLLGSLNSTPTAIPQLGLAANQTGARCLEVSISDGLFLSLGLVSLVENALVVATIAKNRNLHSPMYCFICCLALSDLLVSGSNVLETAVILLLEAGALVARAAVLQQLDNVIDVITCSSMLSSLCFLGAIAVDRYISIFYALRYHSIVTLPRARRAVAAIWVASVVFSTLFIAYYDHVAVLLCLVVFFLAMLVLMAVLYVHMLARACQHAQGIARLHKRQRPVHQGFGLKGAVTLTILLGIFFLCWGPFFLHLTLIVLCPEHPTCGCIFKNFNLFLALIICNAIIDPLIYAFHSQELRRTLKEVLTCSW
T4 sequence (P32245 whole entry): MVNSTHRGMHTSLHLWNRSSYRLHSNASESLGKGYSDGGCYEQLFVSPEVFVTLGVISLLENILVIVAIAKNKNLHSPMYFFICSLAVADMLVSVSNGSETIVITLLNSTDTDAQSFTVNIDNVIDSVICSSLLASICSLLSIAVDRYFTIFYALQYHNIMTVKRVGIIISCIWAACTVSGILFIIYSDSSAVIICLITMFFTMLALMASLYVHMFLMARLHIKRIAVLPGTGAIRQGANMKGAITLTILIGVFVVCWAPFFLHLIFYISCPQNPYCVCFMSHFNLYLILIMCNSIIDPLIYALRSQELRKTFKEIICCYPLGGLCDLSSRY
T1 sequence (O15552 whole entry): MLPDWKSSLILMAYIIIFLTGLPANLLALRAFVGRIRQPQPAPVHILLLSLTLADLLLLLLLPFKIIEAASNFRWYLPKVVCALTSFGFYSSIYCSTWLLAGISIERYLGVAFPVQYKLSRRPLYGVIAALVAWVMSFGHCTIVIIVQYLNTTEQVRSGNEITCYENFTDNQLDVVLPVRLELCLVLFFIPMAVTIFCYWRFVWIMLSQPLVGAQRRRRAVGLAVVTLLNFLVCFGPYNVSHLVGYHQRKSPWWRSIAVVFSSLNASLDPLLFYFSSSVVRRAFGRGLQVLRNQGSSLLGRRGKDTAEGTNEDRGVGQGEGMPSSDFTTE
T2 sequence (P18089 whole entry): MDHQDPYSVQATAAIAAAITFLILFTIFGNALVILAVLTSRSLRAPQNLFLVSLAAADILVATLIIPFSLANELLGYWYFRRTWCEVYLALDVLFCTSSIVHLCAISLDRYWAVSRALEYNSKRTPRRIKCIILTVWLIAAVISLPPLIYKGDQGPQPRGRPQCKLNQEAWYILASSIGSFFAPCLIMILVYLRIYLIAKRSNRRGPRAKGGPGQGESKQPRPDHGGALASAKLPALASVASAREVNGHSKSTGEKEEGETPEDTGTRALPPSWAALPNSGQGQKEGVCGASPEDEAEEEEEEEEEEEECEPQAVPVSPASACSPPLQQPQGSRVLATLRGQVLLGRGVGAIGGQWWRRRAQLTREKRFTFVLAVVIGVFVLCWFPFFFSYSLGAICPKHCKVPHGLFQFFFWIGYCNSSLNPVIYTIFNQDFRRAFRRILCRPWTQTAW

Turning to `CCOc1cccc2cc(C(C)NCC3(O)CCCCC3)oc12` (stereo not shown) [O4LE6], the “Fold of Basal” value at 320 non-olfactory GPCRs [1] was 0.7744 and 0.8932 and 0.7484 and 0.9767; at 320 non-olfactory GPCRs [2] it was 0.5251 and 0.72 and 0.7774 and 1.019. The “GPCRome agonism screen response” value on 320 non-olfactory GPCRs [3] was 1.144 and 0.3717 and 0.6675 and 1.8673; at 320 non-olfactory GPCRs [4], 0.7124 and 0.7559 and 1.4135 and 1.293.
